According to PMC12118597 (Science Advances, 2025):
Where “and” joins values, the source holds several entries; their conditions need not be identical. Equal entries are not always repeated. Where two headings read alike, the source gives them in different places.

How the values were obtained:
[1] = target: T1, SARS-CoV-2 NSP3 macrodomain (Mac1) (Severe acute respiratory syndrome coronavirus 2, UniProt P0DTD1); assay: biochemical; format: binding; conditions: for detectable binding at 200 μM in the HTRF assay: result in words
[2] = target: T1, SARS-CoV-2 NSP3 macrodomain (Mac1); format: binding; conditions: for 2*(1-BDC) (%): occupancy estimate from PanDDA; for PanDDA run, overall: Hit / PanDDA run, DMSO background map: 1-BDC / PanDDA run, DMSO background map: Hit / PanDDA run, overall: Modeled: crystal soak 10 mM; for PanDDA run, overall: Hit / PanDDA run, overall: Modeled: P43 crystal form; for Total number of conformations: ligand conformations modeled in the crystal structure
[3] = HTRF binding curve, SARS-CoV-2 Mac1
[4] = crystal soak concentration 20 mM, DMSO background map
[5] = crystal soak concentration 20 mM, P43 crystals
[6] = SARS CoV-2 macrodomain HTRF assay, dose-response
[7] = PanDDA background density correction factor
[8] = ligand-bound crystal structure obtained (TRUE)
[9] = refined crystallographic occupancy
[10] = site occupied in X-ray crystal structure
[11] = TRUE = crystal structure with ligand obtained
[12] = site of ligand in X-ray crystal structure

| Compound | Hill slope [1, 3] | 2*(1-BDC) (%) [2] | Hill slope [1, 6] | Occupancy difference (refined_occupancy - 2*(1-BDC)) [2] | 1-BDC [2, 7] | PanDDA run, overall: Hit [2] | PanDDA run, DMSO background map: 1-BDC ([2]; DMSO background map) | PanDDA run, DMSO background map: Hit ([2]; DMSO background map) | Total number of conformations [2] | X-ray crystal structure [2, 8] | Refined ligand occupancy (%) [2, 9] | Binding site [2, 10] | X-ray crystal structure [2, 11] | PanDDA run, overall: Modeled [2] | Binding site [2, 12] | further results |
| --- | --- | --- | --- | --- | --- | --- | --- | --- | --- | --- | --- | --- | --- | --- | --- | --- |
| O=C1CCc2cc(C(=O)N3CC(C(=O)O)CCC34CCCC4)c(F)cc2N1 (stereo not shown) [AVI-338] | 1.5 | 14% |  |  |  |  |  |  |  |  |  |  |  |  |  | Hill slope ([1]; dose-response): 1.5; 1-BDC ([2]; PanDDA background density correction, 1-BDC): 0.07; X-ray crystal structure ([2]; TRUE = ligand-bound crystal structure obtained (PDB code given)): TRUE; Hit (PanDDA run, DMSO background map) [2, 4]: TRUE; Modeled (PanDDA run, DMSO background map) [2, 4]: TRUE; 1-BDC (PanDDA run, DMSO background map) ([2]; crystal soak concentration 20 mM, DMSO background map, event 1): 0.07; Hit (PanDDA run, overall) [2, 5]: TRUE; Modeled (PanDDA run, overall) [2, 5]: TRUE; Refined ligand occupancy (%) ([2]; crystallographic refinement): 14%; Binding site ([2]; site of Mac1 occupied in the X-ray crystal structure (Adenosine or Distal)): Adenosine |
| OC[C@@H]1C[C@H](O)CN1c1ncnc2[nH]ccc12 [AVI-610] | 1.2 | 42% | 1.2 | 18 | 0.21 | TRUE | 0.34 and 0.31 and 0.21 and 0.26 | TRUE | 1 | TRUE | 60% | Adenosine |  |  |  |  |
| OCC(Nc1ncnc2[nH]ccc12)C1CC1 (stereo not shown) [AVI-3651] | 1.2 | 36% | 1.2 | 0 | 0.18 | TRUE | 0.18 | TRUE | 1 |  | 36% |  | TRUE | TRUE | Adenosine |  |
| O[C@H]1CC[C@@H]2CCN(c3ncnc4[nH]ccc34)[C@@H]21 [AVI-3664] | 1.2 | 32% | 1.2 | 0 | 0.16 | TRUE | 0.16 | TRUE | 1 | TRUE | 32% | Adenosine |  | TRUE |  |  |
| CCC(O)[C@H]1CCCN1c1ncnc2[nH]ccc12 (stereo partly shown) [AVI-3666] | 1.3 | 60% | 1.3 | 10 | 0.3 | TRUE | 0.3 | TRUE | 1 | TRUE | 70% | Adenosine |  | TRUE |  |  |
| O=C(O)C(F)(F)F.OCC1(Nc2ncnc3[nH]ccc23)CCC1 [AVI-3670] | 1.2 | 36% | 1.2 | 0 | 0.18 | TRUE | 0.18 | TRUE | 2 |  | 36% |  | TRUE | TRUE | Adenosine |  |
| CN(C)CC(CO)Nc1ncnc2[nH]ccc12 (stereo not shown) [AVI-3671] |  | 34% |  | 0 | 0.17 | TRUE | 0.17 | TRUE | 1 |  | 34% |  | TRUE | TRUE | Adenosine | detectable binding at 200 μM in the HTRF assay [1]: neither had detectable binding |
| OCC(CN1CCCCC1)Nc1ncnc2[nH]ccc12 (stereo not shown) [AVI-3677] |  | 42% |  | 0 | 0.21 | TRUE | 0.21 | TRUE | 1 |  | 42% |  | TRUE | TRUE | Adenosine | detectable binding at 200 μM in the HTRF assay [1]: neither had detectable binding |
